In ChEMBL document CHEMBL5376002, “A Hybrid Antimicrobial Peptide Targeting Staphylococcus aureus with a Dual Function of Inhibiting Quorum Sensing Signaling and an Antibacterial Effect” (J Med Chem, 2023):
pKd: −log10 of the molar value. In brackets after ≈: the same amount, converted by molar mass. Activity calls are given as the source filed them. The calls are words filed in the database; no cut-off is given here. Numbered stars: 1 amine (or outer) side, 2 acyl side, 3 side chain; on linkers, the order of the positions; unused ones are H or OH. Bridge positions count the residues as written; N and C are the ends. Square brackets hold non-standard residues; d marks the D form. Peptide text beside a SMILES is read from it. I, II: the chains in the order shown. X1 = O=C1CC([*:2])C(=O)N1CCCCCC(=O)[*:1]; Dab = NCC[C@H](N)C(=O)O

Assays:
[1] = test system: Staphylococcus aureus; assay: Antibacterial activity against Staphylococcus aureus ATCC 6538p assessed as inhibition of bacterial growth incubated for 18 to 24 hrs; assay type: functional; conditions: time 18-24 hrs
[2] = test system: Staphylococcus aureus; assay: Antibacterial activity against Staphylococcus aureus ATCC 12600 assessed as inhibition of bacterial growth incubated for 18 to 24 hrs; assay type: functional; conditions: time 18-24 hrs
[3] = test system: Staphylococcus aureus; assay: Antibacterial activity against Staphylococcus aureus ATCC 43300 assessed as inhibition of bacterial growth incubated for 18 to 24 hrs; assay type: functional; conditions: time 18-24 hrs
[4] = test system: Staphylococcus aureus; assay: Bactericidal activity against Staphylococcus aureus ATCC 43300 assessed as inhibition of bacterial growth incubated for 18 to 24 hrs; assay type: functional; conditions: time 18-24 hrs
[5] = test system: Staphylococcus epidermidis; assay: Antibacterial activity against Staphylococcus epidermidis ATCC 12228 assessed as inhibition of bacterial growth incubated for 18 to 24 hrs; assay type: functional; conditions: time 18-24 hrs
[6] = test system: Staphylococcus epidermidis; assay: Bactericidal activity against Staphylococcus epidermidis ATCC 12228 assessed as inhibition of bacterial growth incubated for 18 to 24 hrs; assay type: functional; conditions: time 18-24 hrs
[7] = test system: Streptococcus pneumoniae; assay: Antibacterial activity against Streptococcus pneumoniae ATCC 49619 assessed as inhibition of bacterial growth incubated for 18 to 24 hrs; assay type: functional; conditions: time 18-24 hrs
[8] = test system: Streptococcus pneumoniae; assay: Bactericidal activity against Streptococcus pneumoniae ATCC 49619 assessed as inhibition of bacterial growth incubated for 18 to 24 hrs; assay type: functional; conditions: time 18-24 hrs
[9] = test system: Staphylococcus saprophyticus; assay: Antibacterial activity against Staphylococcus saprophyticus ATCC BAA-750 assessed as inhibition of bacterial growth incubated for 18 to 24 hrs; assay type: functional; conditions: time 18-24 hrs
[10] = test system: Staphylococcus saprophyticus; assay: Bactericidal activity against Staphylococcus saprophyticus ATCC BAA-750 assessed as inhibition of bacterial growth incubated for 18 to 24 hrs; assay type: functional; conditions: time 18-24 hrs
[11] = test system: Streptococcus mutans; assay: Antibacterial activity against Streptococcus mutans UA159 assessed as inhibition of bacterial growth incubated for 18 to 24 hrs; assay type: functional; conditions: time 18-24 hrs
[12] = test system: Streptococcus mutans; assay: Bactericidal activity against Streptococcus mutans UA159 assessed as inhibition of bacterial growth incubated for 18 to 24 hrs; assay type: functional; conditions: time 18-24 hrs
[13] = test system: Streptococcus mutans; assay: Bactericidal activity against Streptococcus mutans ATCC 25175 assessed as inhibition of bacterial growth incubated for 18 to 24 hrs; assay type: functional; conditions: time 18-24 hrs
[14] = test system: Escherichia coli; assay: Antibacterial activity against Escherichia coli ATCC 25922 assessed as inhibition of bacterial growth incubated for 18 to 24 hrs; assay type: functional; conditions: time 18-24 hrs
[15] = test system: RAW264.7; assay: Cytotoxicity against mouse RAW264.7 cells assessed as cell viability incubated for 48 hrs by MTT assay; assay type: functional
[16] = Binding affinity to AgrC-I extra-loop-I (unknown origin) assessed as dissociation constant incubated for 10 mins by isothermal titration calorimetry analysis
[17] = Binding affinity to AgrC-I extra-loop-II (unknown origin) assessed as change in enthalpy incubated for 10 mins by isothermal titration calorimetry analysis
[18] = Binding affinity to AgrC-I extra-loop-III (unknown origin) assessed as change in enthalpy incubated for 10 mins by isothermal titration calorimetry analysis
[19] = species on record: Homo sapiens; assay: Binding affinity to AgrC-I extra-loop-I (unknown origin) assessed as gibbs free energy change incubated for 10 mins by isothermal titration calorimetry analysis
[20] = species on record: Homo sapiens; assay: Binding affinity to AgrC-I extra-loop-III (unknown origin) assessed as gibbs free energy change incubated for 10 mins by isothermal titration calorimetry analysis
[21] = species on record: Homo sapiens; assay: Binding affinity to AgrC-I extra-loop-I (unknown origin) assessed as change in entropy incubated for 10 mins by isothermal titration calorimetry analysis
[22] = species on record: Homo sapiens; assay: Binding affinity to AgrC-I extra-loop-II (unknown origin) assessed as change in entropy incubated for 10 mins by isothermal titration calorimetry analysis
[23] = species on record: Homo sapiens; assay: Binding affinity to AgrC-I extra-loop-III (unknown origin) assessed as change in entropy incubated for 10 mins by isothermal titration calorimetry analysis
[24] = Inhibition of quorum sensing system in Staphylococcus aureus ATCC 6538p assessed as downregulation of RNAIII expression level at 0.78 uM incubated for 24 hrs by qRT-PCR analysis
[25] = test system: Staphylococcus aureus; assay: Antivirulence activity against Staphylococcus aureus assessed as downregulation of RNAIII expression level at 1 to 100 uM incubated for 24 hrs by qRT-PCR analysis; assay type: functional, organism-based; conditions: dose 1-100 µM
[26] = test system: Staphylococcus aureus; assay: Antivirulence activity against Staphylococcus aureus assessed as downregulation of hla expression level at 1 to 100 uM incubated for 24 hrs by qRT-PCR analysis; assay type: functional, organism-based; conditions: dose 1-100 µM
[27] = test system: Staphylococcus aureus; assay: Antivirulence activity against Staphylococcus aureus assessed as downregulation of psm-alpha expression level at 1 to 100 uM incubated for 24 hrs by qRT-PCR analysis; assay type: functional, organism-based; conditions: dose 1-100 µM
[28] = test system: Erythrocyte; assay: Hemolytic activity in rat RBC assessed as hemolysis measured after 20 hrs; assay type: toxicity, cell-based
[29] = test system: Staphylococcus aureus; assay: Antivirulence activity against Staphylococcus aureus ATCC 6538p assessed as downregulation of RNAIII expression level at 2.5 uM measured for 28 passages by qRT-PCR analysis; assay type: functional, organism-based
[30] = test system: Staphylococcus aureus; assay: Antibacterial activity against Staphylococcus aureus assessed as reduction in bacterial growth at 6.25 uM measured at 20 mins by time kill assay; assay type: functional, organism-based
[31] = test system: Staphylococcus epidermidis; assay: Antibacterial activity against Staphylococcus epidermidis assessed as reduction in bacterial growth at 6.25 uM measured at 20 mins by time kill assay; assay type: functional, organism-based
[32] = test system: Staphylococcus saprophyticus; assay: Antibacterial activity against Staphylococcus saprophyticus assessed as reduction in bacterial growth at 6.25 uM measured at 20 mins by time kill assay; assay type: functional, organism-based
[33] = test system: Streptococcus pneumoniae; assay: Antibacterial activity against Streptococcus pneumoniae assessed as reduction in bacterial growth at 6.25 uM measured at 20 mins by time kill assay; assay type: functional, organism-based
[34] = test system: Escherichia coli; assay: Antibacterial activity against Escherichia coli assessed as reduction in bacterial growth at 6.25 uM measured at 20 mins by time kill assay; assay type: functional, organism-based
[35] = test system: Staphylococcus aureus; assay: Inhibition of biofilm formation in Staphylococcus aureus at 0.78 to 1.56 uM incubated for 24 hrs by crystal violet staining based analysis; assay type: functional, organism-based; conditions: dose 0.78-1.56 µM
[36] = test system: Cell membrane; assay: Induction of cell membrane damage in Staphylococcus aureus ATCC 6538p assessed as increase in nucleic acid leakage measured up to 30 mins by UV-spectrophotometer analysis; assay type: subcellular
[37] = test system: Cell membrane; assay: Induction of cell membrane damage in Staphylococcus aureus ATCC 6538p assessed as increase in fluorescent intensity incubated for 30 mins by PI staining based flow cytometry assay
[38] = Toxicity in Kunming mouse infected with Staphylococcus aureus ATCC 6538p assessed as animal survival rate 15 mg/kg, ip pre-infected with bacteria for 1 hr followed by compound administration and measured after 7 days; assay type: organism-based; conditions: in vivo, 168 h, time 7 day
[39] = Toxicity in Kunming mouse infected with Staphylococcus aureus ATCC 6538p assessed as animal survival rate 45 mg/kg, ip pre-infected with bacteria for 1 hr followed by compound administration and measured after 7 days; assay type: organism-based; conditions: in vivo, 168 h, time 7 day
[40] = Toxicity in Kunming mouse infected with Staphylococcus aureus ATCC 6538p assessed as weight loss 15 to 45 mg/kg, ip pre-infected with bacteria for 1 hr followed by compound administration and measured after 3 days; assay type: organism-based; conditions: in vivo, 72 h, dose 15-45 mg/kg, time 3 day
[41] = Toxicity in Kunming mouse infected with Staphylococcus aureus ATCC 6538p assessed as body weight gain 15 to 45 mg/kg, ip pre-infected with bacteria for 1 hr followed by compound administration and measured after 5 days; assay type: organism-based; conditions: in vivo, 120 h, dose 15-45 mg/kg, time 5 day

`CC[C@H](C)[C@H](NC(=O)CNC(=O)CNC(=O)[C@@H](N)CSC1CC(=O)N(CCCCCC(=O)NCC(=O)N[C@H](C(=O)N[C@@H](CCCCN)C(=O)N[C@@H](CC(N)=O)C(=O)N[C@@H](CC(C)C)C(=O)N[C@@H](Cc2c[nH]c3ccccc23)C(=O)N[C@@H](CCCCN)C(=O)N[C@@H](CCCCN)C(=O)N[C@@H](CCSC)C(=O)N[C@H](C(=O)N[C@@H](CCCCN)C(=O)N[C@@H](CC(C)C)C(=O)N[C@@H](Cc2c[nH]c3ccccc23)C(=O)N[C@@H](Cc2ccc(O)cc2)C(=O)O)[C@@H](C)CC)[C@@H](C)CC)C1=O)C(=O)N[C@@H](CC(N)=O)C(=O)N[C@H]1CCNC(=O)[C@H](CC(C)C)NC(=O)[C@H](CC(C)C)NC(=O)[C@H](Cc2ccccc2)NC(=O)[C@H](C)NC1=O` (stereo partly specified) (I: GIKNLWKKMIKLWY-OH / II: H-CGGIN[Dab]AFLL; linker I:N-II:1 via X1; lactam II:6-II:C) showed an MIC [1] of 3.13 µM (≈ 9.4 µg/mL), an MIC [2] of 3.13 µM (≈ 9.4 µg/mL) and an MIC [3] of 6.25 µM (≈ 18.8 µg/mL). For the same compound, the MBC [4] was 6.25 µM (≈ 18.8 µg/mL), the MIC [5] was 1.56 µM (≈ 4.69 µg/mL) and the MBC [6] was 3.13 µM (≈ 9.4 µg/mL). It also gave an MIC [7] of 6.25 µM (≈ 18.8 µg/mL), an MBC [8] of 6.25 µM (≈ 18.8 µg/mL) and an MIC [9] of 3.13 µM (≈ 9.4 µg/mL). For the same compound, the MBC [10] was 3.13 µM (≈ 9.4 µg/mL), the MIC [11] was 6.25 µM (≈ 18.8 µg/mL) and the MBC [12] was 6.25 µM (≈ 18.8 µg/mL). For the same compound, the MBC [13] was 3.13 µM (≈ 9.4 µg/mL), the MIC [14] was 3.13 µM (≈ 9.4 µg/mL) and the CC50 [15] was 71.1 µM. The pKd [16] was 12.00, the deltaH [17] was “inactive” and the deltaH [18] was “inactive”. It also gave a deltaG [19] of -16.4 kcal/mol, a deltaG [20] of -16.4 kcal/mol and a -TdeltaS [21] of -11.7 kcal/mol. For the same compound, the -TdeltaS [22] was 16.4 kcal/mol, the -TdeltaS [23] was -16.3 kcal/mol and the inhibition [24] was “Active”. The Activity [25] was “Active”, the Activity [26] was “Active” and the Activity [27] was “Active”. The Activity [28] was “Toxic”, the Activity [29] was “Active” and the Activity [30] was “Active”. For the same compound, the Activity [31] was “inactive”, the Activity [32] was “inactive” and the Activity [33] was “inactive”. For the same compound, the Activity [34] was “inactive”, the inhibition [35] was “Active” and the Activity [36] was “Active”. For the same compound, the Activity [37] was “Active”, the Activity [38] was 20% and the Activity [39] was 50%. For the same compound, the Activity [40] was “Non-Toxic” and the Activity [41] was “Non-Toxic”.
